Reference: ChEMBL document CHEMBL1130437, “Discovery of selective dopamine D4 receptor antagonists: 1-Aryloxy-3-(4-aryloxypiperidinyl)-2-propanols” (Bioorg Med Chem Lett, 1997)

Legend:
Assay type in all cases: cell-based
D(4) dopamine receptor = molecular target: T1, D(4) dopamine receptor (Homo sapiens, UniProt P21917); assay: Binding affinity against human cloned D4 receptor transfected in CHO-K1 cells by [3H]- spiperone displacement.
T1 sequence (P21917 whole entry): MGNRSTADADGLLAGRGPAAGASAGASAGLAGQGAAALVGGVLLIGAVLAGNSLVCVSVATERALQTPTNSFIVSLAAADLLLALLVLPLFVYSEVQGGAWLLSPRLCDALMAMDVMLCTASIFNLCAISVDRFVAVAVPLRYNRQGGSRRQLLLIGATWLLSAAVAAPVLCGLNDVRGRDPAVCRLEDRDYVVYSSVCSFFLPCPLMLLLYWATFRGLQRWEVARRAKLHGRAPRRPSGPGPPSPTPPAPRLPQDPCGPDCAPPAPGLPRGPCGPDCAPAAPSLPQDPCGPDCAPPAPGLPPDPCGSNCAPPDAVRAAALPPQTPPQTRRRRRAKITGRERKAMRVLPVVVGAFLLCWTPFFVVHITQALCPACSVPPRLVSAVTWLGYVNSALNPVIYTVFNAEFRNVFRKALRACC

D(2) dopamine receptor = D(2) dopamine receptor (Homo sapiens, UniProt P14416); assay: Binding affinity against cloned human D2 receptor transfected in CHO-K1 cells using [3H]- spiperone as radioligand.
Sequence of D(2) dopamine receptor (P14416 whole entry): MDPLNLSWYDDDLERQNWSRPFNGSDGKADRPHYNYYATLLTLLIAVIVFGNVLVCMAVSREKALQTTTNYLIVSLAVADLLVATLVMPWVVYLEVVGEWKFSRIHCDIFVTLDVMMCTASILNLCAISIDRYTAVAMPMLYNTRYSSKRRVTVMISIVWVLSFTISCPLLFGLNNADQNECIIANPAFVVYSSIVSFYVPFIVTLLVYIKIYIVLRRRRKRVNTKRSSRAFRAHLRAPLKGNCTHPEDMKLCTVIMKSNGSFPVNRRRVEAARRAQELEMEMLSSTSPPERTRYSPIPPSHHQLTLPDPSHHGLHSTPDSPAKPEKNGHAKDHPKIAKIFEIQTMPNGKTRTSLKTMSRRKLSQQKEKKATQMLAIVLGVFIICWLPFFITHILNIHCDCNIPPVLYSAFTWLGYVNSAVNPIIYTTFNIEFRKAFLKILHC

D(3) dopamine receptor = D(3) dopamine receptor (Homo sapiens, UniProt P35462); assay: Binding affinity against cloned human D3 receptor transfected in CHO-K1 cells using [3H]- spiperone as radioligand.
Sequence of D(3) dopamine receptor (P35462 whole entry): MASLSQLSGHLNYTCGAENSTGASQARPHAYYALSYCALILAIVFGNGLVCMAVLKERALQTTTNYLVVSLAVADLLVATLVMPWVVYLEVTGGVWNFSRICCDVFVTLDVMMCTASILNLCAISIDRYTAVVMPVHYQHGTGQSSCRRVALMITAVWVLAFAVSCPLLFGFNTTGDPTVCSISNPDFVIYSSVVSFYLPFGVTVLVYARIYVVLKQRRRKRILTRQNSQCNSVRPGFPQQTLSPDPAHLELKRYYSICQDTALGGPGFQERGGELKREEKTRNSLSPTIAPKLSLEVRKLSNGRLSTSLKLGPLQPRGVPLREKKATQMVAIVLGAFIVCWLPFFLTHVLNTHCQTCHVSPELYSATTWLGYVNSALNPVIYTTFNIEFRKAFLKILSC

Row | Ki (D(4) dopamine receptor) | Ki (D(2) dopamine receptor) | Ki (D(3) dopamine receptor) | Structure (SMILES)
1 | 11.6 nM | 709 nM | 457 nM | O[C@H](COc1ccccc1)CN1CCC(Oc2ccccc2)CC1
2 | 45 nM | – | – | COC(COc1cccc2ccccc12)CN1CCC(Cc2ccccc2)CC1 (stereo not given)
3 | 52 nM | – | – | Cc1ccc(CC2CCN(CC(O)COc3cccc4ccccc34)CC2)cc1 (stereo not given)
4 | 34 nM | – | – | OC(COc1ccccc1)CN1CCC(Cc2ccccc2)CC1 (stereo not given)
5 | 72 nM | – | – | CC(COc1cccc2ccccc12)CN1CCC(Cc2ccccc2)CC1 (stereo not given)
6 | 32 nM | – | – | OC(COc1cccc2ccccc12)CN1CCC(Cc2ccc(F)cc2)CC1 (stereo not given)
7 | 18 nM | 2340 nM | – | OC(COc1cccc2ccccc12)CN1CCC(Oc2ccccc2)CC1 (stereo not given)
8 | 45 nM | – | – | OC(COc1cccc2ccccc12)CN1CCC(Cc2ccc(Cl)cc2)CC1 (stereo not given)
9 | 32 nM | – | – | OC(COc1cccc2ccccc12)CN1CCC(Sc2ccccc2)CC1 (stereo not given)
10 | 59 nM | – | – | O=[N+]([O-])c1ccc(OCC(O)CN2CCC(Cc3ccccc3)CC2)cc1 (stereo not given)
11 | 123 nM | – | – | COc1ccc(OCC(O)CN2CCC(Cc3ccccc3)CC2)cc1 (stereo not given)
12 | 18 nM | – | – | OC(COc1ccc(Cl)cc1)CN1CCC(Cc2ccccc2)CC1 (stereo not given)
13 | 74 nM | – | – | COc1ccc(CC2CCN(CC(O)COc3cccc4ccccc34)CC2)cc1 (stereo not given)
14 | 2 nM | 244 nM | 220 nM | O[C@@H](COc1ccccc1)CN1CCC(Oc2ccccc2)CC1
15 | 50 nM | – | – | c1ccc(CC2CCN(CCCOc3cccc4ccccc34)CC2)cc1
16 | 26 nM | 1440 nM | – | OC(COc1cccc2ccccc12)CN1CCC(Cc2ccccc2)CC1 (stereo not given)
17 | 3.6 nM | 911 nM | 537 nM | OC(COc1ccccc1)CN1CCC(Oc2ccccc2)CC1 (racemic)
